Values quoted from earlier work, collected in patent US20110142757A1, “NOVEL COMPOUNDS AND THEIR USES IN DIAGNOSIS” (the University of Sydney, priority 2008, published 2011).

System: activated microglia
Conditions: quinolinic acid-injected rat striatum

In the case of `CCC(C)N(C)C(=O)c1cc2ccccc2c(-c2ccccc2Cl)n1` (stereo not shown) [PK11195], the “Microglial activation and neuronal death” value is listed as “reduces microglial activation and neuronal death”.
